# Results as given in patent US6869603B2, “Lipoprotein lipase and lipoprotein lipase activators in the treatment of inflammatory conditions” (The Brigham and Women's Hospital, Inc., priority 2001, dated 2005).
# Entries after “also recorded” stand apart in the source; their conditions may differ.
# B1: heat-inactivated LPL: heat-inactivated lipoprotein lipase (protein, UniProt P06858 28-475, looked up)
# Lipoprotein lipase: ADQRRDFIDIESKFALRTPEDTAEDTCHLIPGVAESVATCHFNHSSKTFMVIHGWTVTGMYESWVPKLVAALYKREPDSNVIVVDWLSRAQEHYPVSAGYTKLVGQDVARFINWMEEEFNYPLDNVHLLGYSLGAHAAGIAGSLTNKKVNRITGLDPAGPNFEYAEAPSRLSPDDADFVDVLHTFTRGSPGRSIGIQKPVGHVDIYPNGGTFQPGCNIGEAIRVIAERGLGDVDQLVKCSHERSIHLFIDSLLNEENPSKAYRCSSKEAFEKGLCLSCRKNRCNNLGYEINKVRAKRSSKMYLKTRSQMPYKVFHYQVKIHFSGTESETHTNQAFEISLYGTVAESENIPFTLPEVSTNKTYSFLIYTEVDIGELLMLKLKWKSDSYFSWSDWWSSPGFAIQKIRVKAGETQKKVIFCSREKVSHLQKGKAPAVFVKCHDKSLNKKSG
# modifications: heat-inactivated
# Legend:
# VCAM-1 promoter = test: VCAM-1 promoter-luc transient transfection in bovine endothelial cells (BoEC); assay type: cell-based
# Method: Transient transfection: Transient transfection was carried out in primary (passage 3 to 6) bovine aortic endothelial cells using the Superfect method (Qiagen, Germany) according to manufacturer's directions. Briefly, cells were plated in 24-well plates at 2.3×10^4 cells per well in DMEM containing 10% fetal calf serum. After 16 h of growth, cells were washed with HBSS and transfected with medium containing Superfect/DNA (ratio 5.5/1) for 4 hours or with FuGene (1.5/1) overnight. Reporter construct pUASx4-TK-luc, chimeric human PPAR-alpha-LBD constructs, PPAR-alpha and LDL receptor (LDLr) overexpression vectors, and the VCAM-1 promoter-luc, have been described previously. A PCMX-B-galactosidase expression vector was used as a transfection control. Cells were maintained overnight in medium, followed by treatment with compounds for 10 hrs in DMEM medium containing 1% FCS (for PPAR-alpha-LBD constructs) and 1% Nutridoma SP (for VCAM-1 promoter studies). Cells lysed in buffer (Pharmingen) were assayed for luciferase activity using a reported assay system (Pharmingen) according to the manufacturer's instructions. β-galactosidase activity was monitored at 540 nm using CRPTG (Boeringer Mannheim) as substrate. LDL− augments TNFα-mediated VCAM-1 expression: Surface expression of VCAM-1 was studied in HUVEC activated by TNFα. […]
# [1] = biological target: T1, PPAR-alpha-ligand binding domain (LBD) (Homo sapiens, UniProt Q07869); test: PPAR-alpha-LBD/GAL4 chimeric construct activation (luciferase) in transiently transfected primary bovine aortic endothelial cells; assay type: cell-based; conditions: for Effect on VLDL/LPL-mediated PPAR-alpha-LBD activation: agent added to VLDL/LPL treatment; for Effect on LPL/LDL− dependent activation of PPAR-alpha: agent added to LDL−/LPL
# T1 construct: yeast GAL4 (fusion partner); expressed in transfected cells; host or cells: primary bovine aortic endothelial cells (passage 3-6)
# Method: Transient transfection: Transient transfection was carried out in 24-well plates at 2.3×10^4 primary bovine aortic EC (passage 3-6) per well using Superfect (Qiagen) or Fugene (F. Hoffmann-La Roche). PCMX-β-galactosidase expression vector was used for transfection control. LPL and LPL mutant expression vectors have been previously characterized. Luciferase (Pharmingen, San Diego, Calif.) and P-galactosidase activity were measured according to manufacturer's protocols.
# LPL lipolysis of TG-LP generates PPARα ligands: We tested if LPL generates endogenous PPAR-alpha ligands from TG-LP by analyzing activation of chimeric PPAR-alpha-ligand binding domain (LBD) constructs in yeast GAL4 assays. […] Maximal induction was highest for VLDL (21 fold), followed by LDL (14 fold) and HDL (7 fold).
# Transient transfection: Transient transfection was carried out in primary (passage 3 to 6) bovine aortic endothelial cells using the Superfect method (Qiagen, Germany) according to manufacturer's directions. Briefly, cells were plated in 24-well plates at 2.3×10^4 cells per well in DMEM containing 10% fetal calf serum. After 16 h of growth, cells were washed with HBSS and transfected with medium containing Superfect/DNA (ratio 5.5/1) for 4 hours or with FuGene (1.5/1) overnight. Reporter construct pUASx4-TK-luc, chimeric human PPAR-alpha-LBD constructs, PPAR-alpha and LDL receptor (LDLr) overexpression vectors, and the VCAM-1 promoter-luc, have been described previously. A PCMX-B-galactosidase expression vector was used as a transfection control. Cells were maintained overnight in medium, followed by treatment with compounds for 10 hrs in DMEM medium containing 1% FCS (for PPAR-alpha-LBD constructs) and 1% Nutridoma SP (for VCAM-1 promoter studies). Cells lysed in buffer (Pharmingen) were assayed for luciferase activity using a reported assay system (Pharmingen) according to the manufacturer's instructions. β-galactosidase activity was monitored at 540 nm using CRPTG (Boeringer Mannheim) as substrate.
# [2] = test system: acyl-coenzymeA-oxidase (ACO); test: ACO mRNA expression (Northern blot) in HepG2 and primary human macrophages; assay type: cell-based
# Method: Cell Culture: Circulating human monocytes were isolated from healthy volunteers. Differentiated cells (day 7-10) were treated in M199 medium. Peritoneal Mφ were isolated after 5% thioglycollate broth injection into 2-6 month old PPAR-alpha^+/+ and PPAR-alpha^−/− mice. Mφ were cultured in 10% FCS/DMEM 24 h prior to stimulation. HepG2 cells (ATCC, Manassas, Va.) were cultured in 10% FCS/DMEM.
# RNA analysis: Total cell RNA was isolated using RNAEasy kit (Qiagen, Valencia, Calif.), separated using a 1% agarose gel, transferred to a Hydrobone membrane (Amersham, Piscataway, N.J.) and Northern blotting was then performed. cDNA probes for LPL and ACO were obtained from ATCC (Manassas, Va.).
# LPL lipolysis of TG-LP activates PPARα-regulated genes: We tested if activation of PPAR-alpha by VLDL/LPL induced expression of an established PPAR-alpha target gene, acyl-coenzymeA-oxidase (ACO). […] In vivo, increased ACO expression has been shown in LPL-overexpressing mice.
# VCAM-1 = test: Cell surface ELISA of VCAM-1 expression in HUVEC; assay type: cell-based, human; conditions: single stimulus
# Method: Cell Culture: Human endothelial cells were isolated from umbilical veins and cultured in M199 medium (BioWittaker) containing penicillin/streptomycin, Fungozom, ECGF and 5% fetal calf serum. Cells from passage 3 to 5 were used for experiments. Cells were pretreated with 100 uM fenofibric acid or WY 14643 for 24 h and with LDL species/LPL for 1 h prior to addition of 50 ng/ml TNFα. Subsequent duration of incubations varied. Prior to any procedure cells were washed with ice-cold PBS.
# Cell surface ELISA assays were preformed in 96-well plates on confluent monolayers of HUVEC. Treated cells were maintained on ice for 10 minutes, washed with cold PBS and incubated with monoclonal antibodies raised against human VCAM-1. VCAM-1 expression was visualized using alkaline phosphate secondary antibody and measured at […].
# LDL− augments TNFα-mediated VCAM-1 expression: Surface expression of VCAM-1 was studied in HUVEC activated by TNFα. Cell stimulation with LDL− lead to approximately a two-fold increase in VCAM-1 expression. In presence of TNFα, VCAM-1 expression was increased 5-fold. […] Here we found a 50% decrease in VCAM-1 expression induced by LDL− and TNFα but pretreated with PPAR-α agonists. […] The VCAM-1 activation was reduced by two-fold in cells ectopically expressing human PPAR-alpha.
# T1 sequence (Q07869 239-466 limits assumed): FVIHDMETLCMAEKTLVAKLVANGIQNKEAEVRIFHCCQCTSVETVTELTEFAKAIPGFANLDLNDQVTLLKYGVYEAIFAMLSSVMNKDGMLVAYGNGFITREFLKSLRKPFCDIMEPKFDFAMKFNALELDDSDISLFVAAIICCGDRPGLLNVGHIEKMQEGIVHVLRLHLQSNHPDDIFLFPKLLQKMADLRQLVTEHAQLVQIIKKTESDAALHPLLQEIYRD
# T1 sequence (P04386 1-147 partner limits assumed): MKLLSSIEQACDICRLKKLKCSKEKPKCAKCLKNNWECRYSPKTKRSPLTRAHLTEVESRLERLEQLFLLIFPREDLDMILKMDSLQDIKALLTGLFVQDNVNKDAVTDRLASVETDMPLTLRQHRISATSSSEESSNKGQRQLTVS
molecule,measurement,setting,value
CC(C)(Oc1ccc(C(=O)c2ccc(Cl)cc2)cc1)C(=O)O [Fenofibric acid],Decrease in LDL−/TNFα dependent VCAM-1 induction,VCAM-1 promoter; cells co-transfected with PPAR-alpha vector,60%
same,Decrease in LDL−/TNFα dependent VCAM-1 induction,VCAM-1 promoter; cells co-transfected with control vector,40%
CCCCCCCCCCC[C@@H](C[C@@H]1OC(=O)[C@H]1CCCCCC)OC(=O)[C@H](CC(C)C)NC=O [tetrahydrolipstatin],Effect on VLDL/LPL-mediated PPAR-alpha-LBD activation,[1],inhibited LPL-mediated PPAR-alpha-LBD activation in a dose-dependent fashion
same,Effect on VLDL-induced ACO response,[2],inhibited this VLDL response
ApoCIII: natural LPL inhibitor,Effect on LPL/LDL− dependent activation of PPAR-alpha,[1],inhibited; also recorded: abolished
TNFα,Increase in VCAM-1 surface expression,VCAM-1,5 fold
cyclochalasin,Effect on VLDL/LPL-mediated PPAR-alpha-LBD activation,[1],None of these treatments had any effect
heparin,Effect on VLDL/LPL-mediated PPAR-alpha-LBD activation,[1],None of these treatments had any effect
monoacylglycerols [MAG],PPAR-alpha-LBD activation by lipolytic products (significant activators of PPAR-alpha),[1]; lipid added alone,activates PPAR-alpha-LBD
B1,Effect on LPL/LDL− dependent activation of PPAR-alpha,[1],abolished
same,PPAR-alpha-LBD activation after enzyme treatment of lipoproteins,[1]; enzyme plus lipoprotein,failed to induce PPAR-alpha-LBD activation
